According to US20250064990A1, “METHODS OF SCREENING FOR VMAT2 INHIBITORS” (Neurocrine Biosciences, Inc., priority 2021, published 2025):

Target: VMAT2 (Homo sapiens, UniProt Q05940)
Assay: VMAT2 target occupancy of single oral doses of NBI-750142 in healthy adult male subjects, [^18F]AV-133 PET
Format: in vivo
Set-up: from tissue; host or cells: brain (caudate, putamen, midbrain) of living healthy adult male subjects
Conditions: for NBI-750142 T1 Occ / [^18F]AV-133 BPND T1: T1 ([…] post dose); for NBI-750142 T2 Occ / [^18F]AV-133 BPND T2: T2 (18 h post dose)
Experimental: This study was conducted to evaluate the brain penetration and target engagement of VMAT2 after single oral doses of NBI-750142 in healthy subjects. This PET study assessed the engagement of NBI-750142 with VMAT2 in vivo at two time-points after dosing. A sequential-cohort design allowed for the safety, target-occupancy, and available pharmacokinetic (PK) data from each prior cohort to be evaluated before selection of the dose level for the next cohort. A range of NBI-750142 doses (max. 200 mg) were studied to explore the relationship between NBI-750142 plasma concentrations and engagement of VMAT2 in selected brain regions.
This was a Phase 1 single-center, open-label, single-dose, target occupancy study of NBI-750142 in up to 12 healthy male subjects using [^18F]AV-133 PET imaging. […] A total of 12 subjects completed the study. Subjects enrolled in the study were required to report to the clinical research site for 4 separate occasions, detailed below.
Two subjects were initially enrolled in each dose cohort. Each subject received one brain structural magnetic resonance imaging (MRI) scan during screening and up to 3 [^18F]AV-133 PET scans (1 baseline and up to 2 follow-up scans after receiving a single dose of NBI-750142). Subjects enrolled in the first cohort received a single dose of 100 mg of NBI-750142 orally on Day 1. PET scans occurred on Day 1 at approximately 1.5 hours post NBI-750142 dose and on Day 2 at approximately 18 hours post NBI-750142 dose. Subjects were then discharged from the study center after all Day 3 procedures and assessments were completed.
Subjects were administered a single dose of [^18F]AV-133 intravenously over 3 minutes using an infusion pump (approximately 3.33 mL per minute) through a venous catheter followed by a 10 mL saline flush. Dynamic PET imaging of the brain was acquired over 120 min following radiotracer injection on a Siemens Biograph 6 PET/CT camera according to the following protocol: • CT scan of the head • [^18F]AV-133 injection (T=0 min) • Emission scan: 6×30 sec, 4×1 min, 4×2 min, 21×5 min (0-120 min)
Reconstructed PET imaging data volumes were transferred to the image processing PMOD software package (PMOD Technologies, Zurich, Switzerland) where the images were motion and decay corrected, realigned onto the subject MRI and subsequently normalized into the standard MNI (Montreal Neurological Institute) space where volumes of interest (VOIs) were defined from a template (see e.g., Hammers et al, Adult brain maximum probability map (“Hammersmith atlas”; n30r83) in MNI space. 2008). The subject MRI was segmented into grey matter, white matter, and CSF maps. Average activity concentration (kBq/cc) within each VOI, constrained to grey matter voxels for cortical regions, were determined and time activity curves (TACs) were generated. TACs were extracted from the following VOIs: caudate and putamen (striatum), midbrain, cerebellar and occipital cortices. TACs and were expressed in standard uptake value (SUV) units (g/mL) by normalizing with the weight of the subject and the injected dose. The occipital cortex was used as a reference region to normalize activity in target regions to generate SUVr images. For visualization, standard uptake value ratio (SUVr) images were computed between 60-120 min. Non-displaceable binding potential (BPND), the primary outcome measure, was estimated with noninvasive Logan graphical analysis (NI-LGA, t*=20 min) in caudate, putamen and midbrain using the occipital cortex as the reference region. Percent measured occupancy (OM) of NBI-750142 (drug) by region was computed according to the Equation 3-1 at each of the post-dose timepoints, T1 (1.5 h post dose) and T2 (18 h post dose).
Post-hoc exploratory analysis applied an Upregulation model (Equation 3-3), in order to account for the apparent ‘negative occupancy’ values observed at T2 (BPND values at T2 were unexpectedly higher than corresponding BPND values at baseline). […]

[1] = Cohort 1, 100 mg, Subject 1, Caudate
[2] = Cohort 1, 100 mg, Subject 1, Midbrain
[3] = Cohort 1, 100 mg, Subject 1, Putamen
[4] = Cohort 1, 100 mg, Subject 2, Caudate
[5] = Cohort 1, 100 mg, Subject 2, Midbrain
[6] = Cohort 1, 100 mg, Subject 2, Putamen
[7] = Cohort 2, 200 mg, Subject 1, Caudate
[8] = Cohort 2, 200 mg, Subject 1, Midbrain
[9] = Cohort 2, 200 mg, Subject 1, Putamen
[10] = Cohort 2, 200 mg, Subject 2, Caudate
[11] = Cohort 2, 200 mg, Subject 2, Midbrain
[12] = Cohort 2, 200 mg, Subject 2, Putamen
[13] = Cohort 3, 60 mg, Subject 1, Caudate
[14] = Cohort 3, 60 mg, Subject 1, Midbrain
[15] = Cohort 3, 60 mg, Subject 1, Putamen
[16] = Cohort 3, 60 mg, Subject 2, Caudate
[17] = Cohort 3, 60 mg, Subject 2, Midbrain
[18] = Cohort 3, 60 mg, Subject 2, Putamen
[19] = Cohort 4, 60 mg, Subject 1, Caudate

Chain of VMAT2 (Q05940 whole entry): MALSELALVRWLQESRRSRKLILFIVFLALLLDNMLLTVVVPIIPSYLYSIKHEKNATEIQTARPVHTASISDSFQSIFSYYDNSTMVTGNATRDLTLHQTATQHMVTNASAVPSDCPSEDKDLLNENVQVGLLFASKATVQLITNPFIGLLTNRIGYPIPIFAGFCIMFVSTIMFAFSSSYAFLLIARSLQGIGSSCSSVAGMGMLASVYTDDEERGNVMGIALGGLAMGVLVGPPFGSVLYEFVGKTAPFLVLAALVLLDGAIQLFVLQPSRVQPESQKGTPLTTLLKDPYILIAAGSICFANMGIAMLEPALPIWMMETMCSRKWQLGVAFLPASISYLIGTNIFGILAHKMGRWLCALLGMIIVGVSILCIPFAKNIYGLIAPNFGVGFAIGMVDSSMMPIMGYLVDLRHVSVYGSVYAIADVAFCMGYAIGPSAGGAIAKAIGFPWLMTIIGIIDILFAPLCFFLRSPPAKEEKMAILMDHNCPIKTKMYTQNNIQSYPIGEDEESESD

For `COc1cc2c(cc1OC)[C@H]1CN(C)[C@H](CC(C)(C)C)CN1CC2` [NBI-750142], the “[^18F]AV-133 striatal uptake at T1 vs baseline” value (10 mg, cohorts 5A and 5B) was “did not show reduction in uptake”, the “[^18F]AV-133 striatal uptake at T1 vs baseline” value (60 mg, cohorts 3 and 4) was “showed variability between subjects” and the “[^18F]AV-133 striatal uptake at T1 vs baseline” value (100 mg and 200 mg doses, both subjects) was “markedly reduced uptake”. The “NBI-750142 T1 Occ” value [1] was 72%, the “[^18F]AV-133 BPND T1” value [1] was 0.34 and the “NBI-750142 T2 Occ” value [1] was 3%. The “[^18F]AV-133 BPND T2” value [1] was 1.15, the “NBI-750142 T1 Occ” value [2] was 59% and the “[^18F]AV-133 BPND T1” value [2] was 0.15. The “NBI-750142 T2 Occ” value [2] was 5%, the “[^18F]AV-133 BPND T2” value [2] was 0.34 and the “NBI-750142 T1 Occ” value [3] was 54%. For the same compound, the “[^18F]AV-133 BPND T1” value [3] was 0.95, the “NBI-750142 T2 Occ” value [3] was −2% and the “[^18F]AV-133 BPND T2” value [3] was 2.11. The “NBI-750142 T1 Occ” value [4] was 80%, the “[^18F]AV-133 BPND T1” value [4] was 0.38 and the “NBI-750142 T2 Occ” value [4] was 15%. The “[^18F]AV-133 BPND T2” value [4] was 1.60, the “NBI-750142 T1 Occ” value [5] was 60% and the “[^18F]AV-133 BPND T1” value [5] was 0.20. The “NBI-750142 T2 Occ” value [5] was 30%, the “[^18F]AV-133 BPND T2” value [5] was 0.36 and the “NBI-750142 T1 Occ” value [6] was 73%. The “[^18F]AV-133 BPND T1” value [6] was 0.66, the “NBI-750142 T2 Occ” value [6] was 13% and the “[^18F]AV-133 BPND T2” value [6] was 2.09. For the same compound, the “Occupancy at T2 in striatum” value (Cohort 1 at 100 mg, subject 1, 18 h post dose) was 1%, the “Occupancy at T2 in striatum” value (Cohort 1 at 100 mg, subject 2, 18 h post dose) was 14% and the “NBI-750142 T1 Occ” value [7] was 75%. For the same compound, the “[^18F]AV-133 BPND T1” value [7] was 0.40, the “NBI-750142 T2 Occ” value [7] was −30% and the “[^18F]AV-133 BPND T2” value [7] was 2.06. For the same compound, the “NBI-750142 T1 Occ” value [8] was 63%, the “[^18F]AV-133 BPND T1” value [8] was 0.14 and the “NBI-750142 T2 Occ” value [8] was −33%. For the same compound, the “[^18F]AV-133 BPND T2” value [8] was 0.49, the “NBI-750142 T1 Occ” value [9] was 69% and the “[^18F]AV-133 BPND T1” value [9] was 0.74. For the same compound, the “NBI-750142 T2 Occ” value [9] was −26%, the “[^18F]AV-133 BPND T2” value [9] was 3.00 and the “NBI-750142 T1 Occ” value [10] was 72%. The “[^18F]AV-133 BPND T1” value [10] was 0.51, the “NBI-750142 T2 Occ” value [10] was −7% and the “[^18F]AV-133 BPND T2” value [10] was 1.91. For the same compound, the “NBI-750142 T1 Occ” value [11] was 60%, the “[^18F]AV-133 BPND T1” value [11] was 0.23 and the “NBI-750142 T2 Occ” value [11] was 7%. The “[^18F]AV-133 BPND T2” value [11] was 0.53, the “NBI-750142 T1 Occ” value [12] was 67% and the “[^18F]AV-133 BPND T1” value [12] was 0.88. The “NBI-750142 T2 Occ” value [12] was −5%, the “[^18F]AV-133 BPND T2” value [12] was 2.81 and the “Occupancy at T2 in striatum” value (Cohort 2 at 200 mg, subject 1, 18 h post dose) was −28%. The “Occupancy at T2 in striatum” value (Cohort 2 at 200 mg, subject 2, 18 h post dose) was −6%, the “NBI-750142 T1 Occ” value [13] was 37% and the “[^18F]AV-133 BPND T1” value [13] was 1.04. The “NBI-750142 T2 Occ” value [13] was −15%, the “[^18F]AV-133 BPND T2” value [13] was 1.93 and the “NBI-750142 T1 Occ” value [14] was 47%. For the same compound, the “[^18F]AV-133 BPND T1” value [14] was 0.20, the “NBI-750142 T2 Occ” value [14] was −5% and the “[^18F]AV-133 BPND T2” value [14] was 0.39. The “NBI-750142 T1 Occ” value [15] was 34%, the “[^18F]AV-133 BPND T1” value [15] was 1.31 and the “NBI-750142 T2 Occ” value [15] was −12%. For the same compound, the “[^18F]AV-133 BPND T2” value [15] was 2.22, the “NBI-750142 T1 Occ” value [16] was 6% and the “[^18F]AV-133 BPND T1” value [16] was 1.62. The “NBI-750142 T2 Occ” value [16] was −20%, the “[^18F]AV-133 BPND T2” value [16] was 2.07 and the “NBI-750142 T1 Occ” value [17] was 16%. The “[^18F]AV-133 BPND T1” value [17] was 0.44, the “NBI-750142 T2 Occ” value [17] was −22% and the “[^18F]AV-133 BPND T2” value [17] was 0.64. For the same compound, the “NBI-750142 T1 Occ” value [18] was 3%, the “[^18F]AV-133 BPND T1” value [18] was 2.14 and the “NBI-750142 T2 Occ” value [18] was −22%. The “[^18F]AV-133 BPND T2” value [18] was 2.70, the “Occupancy at T2 in striatum” value (Cohort 3 at 60 mg, subject 1, 18 h post dose) was −14% and the “Occupancy at T2 in striatum” value (Cohort 3 at 60 mg, subject 2, 18 h post dose) was −21%. The “NBI-750142 T1 Occ” value [19] was 50%, the “[^18F]AV-133 BPND T1” value [19] was 0.78 and the “NBI-750142 T2 Occ” value [19] was −8%.
